These results are taken from article PMC7037731, “Synthesis, Anticancer Activity, and Preliminary Pharmacokinetic Evaluation of 4,4-Disubstituted Curcuminoid 2,2-bis(Hydroxymethyl)Propionate Derivatives” (Molecules, 2020).

The structures appear in SMILES notation. Like-named read-outs stand apart in the source and are kept apart here.

One series deals with MDA-MB-231. As to the kind of experiment: MTT anti-proliferative assay, MDA-MB-231. It counts as cell-based. Particulars: Homo sapiens. The protocol: (§1) These compounds, along with all newly synthesized compounds, were screened for anti-proliferative activity against the same TNBC and colon cancer cell lines.
(§2) Cell viability was evaluated by measuring the reduction in MTT to yield blue formazan. Cells were cultured in 96-well plates, allowed to attach overnight, and then treated with compounds. After treatment, MTT solution (1 mg/mL) was added to each well, and plates were incubated for another 2 h. Medium was removed, blue formazan was dissolved in DMSO, and the absorbance was read at 570 nm by Multiskan Go spectrophotometer (Thermo Scientific, Madison, WI, USA).
A general note: Tetrazolium assays rely on reduction of a dye to a coloured formazan, in cell work by metabolically active cells.

In the next series the test system is HCT-116. As to the kind of experiment: MTT anti-proliferative assay, HCT-116. It counts as cell-based. The conditions noted are these: Homo sapiens. The protocol: as §1, §2
Series [1] relates to HCT-116 colon tumor xenograft. The experiment in a line: In vivo antitumor activity, HCT-116 colon tumor xenograft bearing nude mice. On the set-up: species or system nu/nu mice. Particulars: 30 mg/kg i.p. QOD, positive control. The procedure:
The therapeutic effect of 2 was evaluated on HCT-116 colon tumor xenograft bearing nude mice. The oral administration of 2 at doses of 50, 100, or 150 mg/kg bw per day were performed after tumors reached approximately 100 mm^3 and continued for 30 consecutive days. 5-Fluorouracil treatment (30 mg/kg bw, i.p., QOD) was used as a positive control. […] There was a clear dose- and time-dependent inhibitory effect on tumor size in the other two groups, in which at 50 and 150 mg/kg doses the volume of the HCT-116 colon tumor was reduced to 73% and 40% of the control, respectively (Figure 2). The body weight of the mice was recorded prior to dosing every 3 d, and the average body weight of each group is depicted in Figure 3. Otherwise, they were monitored for visible signs of toxicity and behavioral changes 1 h after each administration.
Male nu/nu mice (5 weeks old) from National Laboratory Animal Center (Taipei, Taiwan) were maintained under the procedures and guidelines provided by the Institutional Animal Care and Use Committee of the National Health Research Institutes (Taipei, Taiwan). All experiments were supervised under the Institutional Animal Care and Use Committee, China Medical University, Taichung, Taiwan with a protocol number ([…]-2018-278). HCT-116 colon cancer cells (5 × 10^6 cells per mouse) were suspended in 0.1 mL of Matrigel solution (50% v/v Matrigel in PBS) and inoculated into the mammary fat pads of the mice. When the tumor size reached 100 mm^3, the tumor-bearing mice were randomly divided into four groups for treating with vehicle (5% ethanol and 10% tween 80 in 85% saline, 0.1 mL) and 2 (p.o. 50, 100 and 150 mg/kg/day body weight) respectively. Compounds was administered via oral route daily for 30 days. 5-Fluorouracil-treated group (i.p. 30 mg/kg) is the positive control. Tumor size and mouse body weight were measured once every 3 days, and tumor volume (mm^3) was calculated using the equation: length × (width)^2 × 0.5. At the end of experiments, mice were sacrificed.

Where [2] appears, read: 48 h treatment, MTT, mean ± SD of at least three experiments, read-out: IC50 (M)/ 48 h MDA-MB-231.
[3] abbreviates: 48 h treatment, MTT, mean ± SD of at least three experiments, read-out: IC50 (M)/ 48 h HCT-116.
The mark [4] stands for this setting: anti-proliferative screening, read-out: IC50 MDA-MB-231.
Setting [5] is: anti-proliferative screening, read-out: IC50 HCT-116.

On to `COCC(COC)(C(=O)/C=C/c1ccc(OC(=O)C(C)(CO)CO)c(OC)c1)C(=O)/C=C/c1ccc(OC(=O)C(C)(CO)CO)c(OC)c1` [Compound 11, [(1E,6E)-4,4-bis(Methoxymethyl)-3,5-dioxohepta-1,6-diene-1,7-diyl]bis(2-methoxy-4,1-phenylene) bis[3-hydroxy-2-(hydroxymethyl)-2-methylpropanoate]], for which the melting point lay in the range of 187 to 188 °C. The IC50 in the series on MDA-MB-231 (setting [2]) was 8.49e-05 ± 1.67e-06 M. The IC50 in the series with HCT-116 (setting [3]) amounted to 6.91e-05 ± 3.11e-06 M.
Regarding `COc1cc(/C=C/C(=O)C(C)(C)C(=O)CCc2ccc(O)c(OC)c2)ccc1O` [Compound 18, (E)-1,7-bis(4-Hydroxy-3-methoxyphenyl)-4,4-dimethylhept-1-ene-3,5-dione], the IC50 in the series with MDA-MB-231 (setting [4]) was 3.648e-05 ± 3.4e-07 M; in the series with HCT-116 (setting [5]), 9.64e-06 ± 2.1e-07 M.
On to `C#CCC(CC#C)(C(=O)/C=C/c1ccc(O)c(OC)c1)C(=O)/C=C/c1ccc(O)c(OC)c1` [Compound 5m, (1E,6E)-1,7-bis(4-Hydroxy-3-methoxyphenyl)-4,4-di(prop-2-yn-1-yl)hepta-1,6-diene-3,5-dione], for which the IC50 in the series with MDA-MB-231 (setting [2]) turned out to be 3.1e-06 ± 1.5e-07 M; in the series with HCT-116 (setting [3]), 1.38e-06 ± 6e-08 M.
For `COc1cc(/C=C/C(=O)C(Cc2ccccc2)(Cc2ccccc2)C(=O)/C=C/c2ccc(OC(=O)C(C)(CO)CO)c(OC)c2)ccc1OC(=O)C(C)(CO)CO` [Compound 4] the same measures were 2.45e-06 ± 2.4e-07 M and 7.66e-06 ± 6.1e-07 M.
In turn, `COc1ccc(/C=C/C(=O)C(CO)(CO)C(=O)/C=C/c2ccc(OC)c(OC)c2)cc1OC` [Compound 12, (1E,6E)-1,7-bis(3,4-Dimethoxyphenyl)-4,4-bis(hydroxymethyl)hepta-1,6-diene-3,5-dione] displayed a melting point of 174 to 176 °C. Further, the IC50 in the series on MDA-MB-231 (setting [2]) came to 5.35e-05 ± 3.45e-06 M. Further, the IC50 in the series with HCT-116 (setting [3]) came to 5.8e-05 ± 6e-07 M.
Consider `CCC(CC)(C(=O)/C=C/c1ccc(OC(=O)C(C)(CO)CO)c(OC)c1)C(=O)/C=C/c1ccc(OC(=O)C(C)(CO)CO)c(OC)c1` [Compound 3], for which the results for the IC50 with MDA-MB-231 (setting [2]) and in the series on HCT-116 (setting [3]) were 3.02e-06 ± 1.5e-07 M and 1.93e-06 ± 1e-08 M, respectively.
As to `COc1cc(/C=C/C(=O)CC(=O)/C=C/c2ccc(O)c(OC)c2)ccc1O` [Curcumin, (1E,6E)-1,7-bis(4-hydroxy-3-methoxyphenyl)hepta-1,6-diene-3,5-dione], the figures for the IC50 in the series on MDA-MB-231 (setting [2]) and in the series with HCT-116 (setting [3]) were 2.21e-05 ± 2.97e-06 M and 2.63e-05 ± 1.38e-06 M, respectively.
In turn, `O=c1[nH]cc(F)c(=O)[nH]1` [5-Fluorouracil, reference compound] yielded a tumor-growth inhibition in series [1] of 40%.
Turning to `CCCC(CCC)(C(=O)/C=C/c1ccc(O)c(OC)c1)C(=O)/C=C/c1ccc(O)c(OC)c1` [Compound 15, (1E,6E)-1,7-bis(4-Hydroxy-3-methoxyphenyl)-4,4-dipropylhepta-1,6-diene-3,5-dione], the melting point fell in the range of 137 to 139 °C. Further, the IC50 in the series with MDA-MB-231 (setting [2]) worked out at 1.82e-05 ± 5.3e-07 M. Further, in the series on HCT-116 (setting [3]), the IC50 is 1.07e-05 ± 1.63e-06 M.
For `COc1cc(/C=C/C(=O)C(Cc2ccccc2)(Cc2ccccc2)C(=O)/C=C/c2ccc(O)c(OC)c2)ccc1O` [Compound 4m, (1E,6E)-4,4-Dibenzyl-1,7-bis(4-hydroxy-3-methoxyphenyl)hepta-1,6-diene-3,5-dione] the same measures were 134 to 135 °C, 3.65e-05 ± 1.66e-06 M and 9.4e-06 ± 2e-08 M.
Take `CCCCC(CCCC)(C(=O)/C=C/c1ccc(O)c(OC)c1)C(=O)/C=C/c1ccc(O)c(OC)c1` [Compound 16, (1E,6E)-4,4-Dibutyl-1,7-bis(4-hydroxy-3-methoxyphenyl)hepta-1,6-diene-3,5-dione]: the melting point lay in the range of 144 to 146 °C. Moreover, the IC50 in the series with MDA-MB-231 (setting [2]) was more than 0.0001 M. The IC50 in the series with HCT-116 (setting [3]) was 6.7e-05 ± 3.18e-06 M.
The corresponding values for `CCC(CC)(C(=O)/C=C/c1ccc(O)c(OC)c1)C(=O)/C=C/c1ccc(O)c(OC)c1` [Compound 3m, (1E,6E)-4,4-Diethyl-1,7-bis(4-hydroxy-3-methoxyphenyl)hepta-1,6-diene-3,5-dione] are 114 to 115 °C, 9.12e-06 ± 4e-07 M and 8.18e-06 ± 5.7e-07 M.
As to `COc1cc(CCC(=O)C(C)(C)C(O)CCc2ccc(O)c(OC)c2)ccc1O` (stereo not drawn) [Compound 20, 5-hydroxy-1,7-bis(4-hydroxy-3-methoxyphenyl)-4,4-dimethylheptan-3-one], the IC50 in the series with MDA-MB-231 (setting [4]) and in the series on HCT-116 (setting [5]) was not below 0.0001 M throughout.
In the case of `COc1cc(CCC(=O)C(C)(C)C(=O)CCc2ccc(O)c(OC)c2)ccc1O` [Compound 19, 1,7-bis(4-Hydroxy-3-methoxyphenyl)-4,4-dimethylheptane-3,5-dione], the IC50 in the series with MDA-MB-231 (setting [4]) and with HCT-116 (setting [5]) was not below 0.0001 M each time.
As to `C=CCC(CC=C)(C(=O)/C=C/c1ccc(OC(=O)C(C)(CO)CO)c(OC)c1)C(=O)/C=C/c1ccc(OC(=O)C(C)(CO)CO)c(OC)c1` [Compound 6, [(1E,6E)-4,4-Diallyl-3,5-dioxohepta-1,6-diene-1,7-diyl]bis(2-methoxy-4,1-phenylene) bis[3-hydroxy-2-(hydroxymethyl)-2-methylpropanoate]], the melting point was 195 to 197 °C. Also, in the series on MDA-MB-231 (setting [2]), the IC50 was 3.13e-06 ± 5.4e-07 M. Besides, the IC50 in the series with HCT-116 (setting [3]) stood at 9.2e-07 ± 6e-08 M.
In turn, `COc1ccc(/C=C/C(=O)C(COC(=O)C(C)(CO)CO)(COC(=O)C(C)(CO)CO)C(=O)/C=C/c2ccc(OC)c(OC)c2)cc1OC` [Compound 14, 2,2-bis[(E)-3-(3,4-Dimethoxyphenyl)acryloyl]propane-1,3-diylbis[3-hydroxy-2-(hydroxymethyl)-2-methylpropanoate]] gave a melting point of more than 300 °C. Besides, the IC50 in the series with MDA-MB-231 (setting [2]) worked out at 5.74e-05 ± 2.06e-06 M. The IC50 in the series on HCT-116 (setting [3]) turned out to be 4.01e-05 ± 1.61e-06 M.
Consider `C#CCC(CC#C)(C(=O)/C=C/c1ccc(OC(=O)C(C)(CO)CO)c(OC)c1)C(=O)/C=C/c1ccc(OC(=O)C(C)(CO)CO)c(OC)c1` [Compound 5], for which the values for the IC50 with MDA-MB-231 (setting [2]) and with HCT-116 (setting [3]) were 5.87e-06 ± 1e-07 M and 5.81e-06 ± 2.3e-07 M, respectively.
Consider `COc1cc(/C=C/C(=O)C(COC(C)=O)(COC(C)=O)C(=O)/C=C/c2ccc(OC(=O)C(C)(CO)CO)c(OC)c2)ccc1OC(=O)C(C)(CO)CO` [Compound 10, [(1E,6E)-4,4-bis(Acetoxymethyl)-3,5-dioxohepta-1,6-diene-1,7-diyl]bis(2-methoxy-4,1-phenylene) bis[3-hydroxy-2-(hydroxymethyl)-2-methylpropanoate]], for which the melting point lay in the range of 194 to 196 °C. Moreover, the IC50 in the series on MDA-MB-231 (setting [2]) worked out at 6.55e-06 ± 4e-08 M. Also, the IC50 in the series with HCT-116 (setting [3]) was 6.53e-06 ± 1e-08 M.
`COc1cc(CCC(O)C(C)(C)C(O)CCc2ccc(O)c(OC)c2)ccc1O` (stereo not drawn) [Compound 21, 1,7-bis(4-Hydroxy-3-methoxyphenyl)-4,4-dimethylheptane-3,5-diol]: the IC50 in the series with MDA-MB-231 (setting [4]) and in the series on HCT-116 (setting [5]) was not below 0.0001 M in each case.
For the molecule `C=CCC(CC=C)(C(=O)/C=C/c1ccc(O)c(OC)c1)C(=O)/C=C/c1ccc(O)c(OC)c1` [Compound 6m, (1E,6E)-4,4-Diallyl-1,7-bis(4-hydroxy-3-methoxyphenyl)hepta-1,6-diene-3,5-dione], the IC50 in the series with MDA-MB-231 (setting [2]) is 6.88e-06 ± 3.6e-07 M; in the series on HCT-116 (setting [3]), 4.4e-06 ± 5.3e-07 M.

Broadly, the melting point is the temperature, or range, at which the solid turns liquid.
